In US11000033B2, “Ketone or oxime compound, and herbicide” (NISSAN CHEMICAL CORPORATION, priority 2014, dated 2021):

Tests used:
Assay type in all cases: in vivo
[1] = system: beet; assay: Test Example 5: effect on crop by foliage application, plastic box (symbol f); conditions: 320 g/ha, 3 weeks after application
Outline: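 Greenhouse test at 25° C. to 30° C. Seeds of crops and weeds were spot-sown in boxes of sterilized diluvial soil under roughly 1.5 cm soil cover, then grown for foliage treatment.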

[2] = system: Setaria viridis; assay: Test Example 5: herbicidal effect by foliage application, plastic box (symbol G); conditions: 320 g/ha, 3 weeks after application
Outline: (§1)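 Post-emergence spray; diluvial soil (sterilized), ~1.5 cm seed cover; greenhouse 25–30° C; 14-day-old plants; water-diluted emulsion at predetermined dose; visual score at 3 wk post-treatment.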

[3] = system: beet; assay: Test Example 4: effect on crop by soil treatment (symbol f); conditions: for f (beet) effect on crop grade: application herbicide amount 320 g/ha
Outline: (§2)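 Diluvial soil (sterilized) in boxes; seeds placed spot-wise alongside weed species; ~1.5 cm covering soil. Greenhouse, 25–30° C.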

[4] = system: corn; assay: Test Example 4: effect on crop by soil treatment (symbol c); conditions: for c (corn) effect on crop grade: application herbicide amount 320 g/ha
Outline: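 Sterilized diluvial soil, spot sowing, ~1.5 cm soil cover; greenhouse 25–30° C.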

[5] = system: Digitaria ciliaris; assay: Test Example 5: herbicidal effect by foliage application, plastic box (symbol F); conditions: 320 g/ha, 3 weeks after application
Outline: as §1

[6] = system: Echinochloa crus-galli var. crus-galli; assay: Test Example 4: herbicidal effect by soil treatment (symbol H); conditions: for H (Echinochloa crus-galli var. crus-galli) herbicidal effect grade: application herbicide amount 320 g/ha
Outline: (§3)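 Seeds were sown in sterilized diluvial soil, covered with about 1.5 cm of soil, and the soil surface was sprayed with a water-diluted emulsion of the compound at a predetermined rate. Plants grew in a greenhouse at 25° C. to 30° C.; effects were scored visually 3 weeks after application.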

[7] = system: Alopecurus myosuroides; assay: Test Example 5: herbicidal effect by foliage application, plastic box (symbol J); conditions: 320 g/ha, 3 weeks after application
Outline: as §1

[8] = system: Cyperus difformis; assay: Test Example 3: herbicidal effect by foliage application, Wagner pot (symbol E); conditions: application herbicide amount 320 g/ha
Outline: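 Foliar spray of a water-diluted emulsion at a predetermined herbicide amount, applied to 14-day-old plants. Seedlings were raised in flooded alluvial soil (0.1–0.5 cm water) at 25–30 °C in a greenhouse. Injury was rated after 3 weeks against fixed criteria.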

[9] = system: directly sowed rice plant; assay: Test Example 3: effect on crop by foliage application, Wagner pot (symbol b); conditions: application herbicide amount 320 g/ha
Outline: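 Wagner pot (1/10000 are), alluvial soil, submerged 0.1–0.5 cm; sown E. crus-galli var. crus-galli, L. chinensis, C. difformis, rice; greenhouse 25–30 °C.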

[10] = system: Lolium multiflorum Lam.; assay: Test Example 4: herbicidal effect by soil treatment (symbol K); conditions: for K (Lolium multiflorum Lam.) herbicidal effect grade: application herbicide amount 320 g/ha
Outline: as §3

[11] = system: Digitaria ciliaris; assay: Test Example 4: herbicidal effect by soil treatment (symbol F); conditions: for F (Digitaria ciliaris) herbicidal effect grade: application herbicide amount 320 g/ha
Outline: as §3

[12] = system: rice; assay: Test Example 4: effect on crop by soil treatment (symbol b); conditions: for b (directly sowed rice plant) effect on crop grade: application herbicide amount 320 g/ha
Outline: as §2

[13] = system: Apera spica-venti; assay: Test Example 5: herbicidal effect by foliage application, plastic box (symbol L); conditions: 320 g/ha, 3 weeks after application
Outline: as §1

[14] = system: Abutilon theophrasti; assay: Test Example 4: herbicidal effect by soil treatment (symbol M); conditions: for M (Abutilon theophrasti) herbicidal effect grade: application herbicide amount 320 g/ha
Outline: as §3

[15] = system: Echinochloa oryzacola Vasing.; assay: Test Example 2: herbicidal activity, application during weed generation in submerged conditions (symbol A); conditions: Table 23; application herbicide amount 320 g/ha; grade 0-5 by criteria of Test Example 1
Outline: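 Scoring of herbicidal effect took place 3 weeks after treatment, using the criteria of the earlier test. Treatment was water-surface application of diluted emulsifiable compound at a set dose. Plants were at one- to two-leaf stage in submerged alluvial soil (4 cm depth), greenhouse 25-30° C.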

[16] = system: Veronica persica; assay: Test Example 5: herbicidal effect by foliage application, plastic box (symbol R); conditions: 320 g/ha, 3 weeks after application
Outline: as §1

[17] = system: wheat; assay: Test Example 4: effect on crop by soil treatment (symbol e); conditions: for e (wheat) effect on crop grade: application herbicide amount 320 g/ha
Outline: as §2

Row | Structure (SMILES) | f: beet, effect on crop grade [1] | G: Setaria viridis, herbicidal effect grade [2] | f (beet) effect on crop grade [3] | c (corn) effect on crop grade [4] | F: Digitaria ciliaris, herbicidal effect grade [5] | H (Echinochloa crus-galli var. crus-galli) herbicidal effect grade [6] | J: Alopecurus myosuroides, herbicidal effect grade [7] | herbicidal effect on E, grade 0-5 [8] | effect on crop b (directly sowed rice plant), grade 0-5 [9] | K (Lolium multiflorum Lam.) herbicidal effect grade [10] | F (Digitaria ciliaris) herbicidal effect grade [11] | b (directly sowed rice plant) effect on crop grade [12] | L: Apera spica-venti, herbicidal effect grade [13] | M (Abutilon theophrasti) herbicidal effect grade [14] | Herbicidal effect grade, A: Echinochloa oryzacola Vasing. [15] | R: Veronica persica, herbicidal effect grade [16] | e (wheat) effect on crop grade [17] | also measured
1 | CCC(C)C(CC1CC(O)=C(c2c(C)cc(C)cc2C)C1=O)=NOC (centres unmarked) [1-066] | 0 (Herbicidal ratio of 5% or lower (almost no effect)) | 5 (Herbicidal ratio of 90% or more (almost completely withered)) | 0 (Herbicidal ratio of 5% or lower (almost no effect)) | 4 (Herbicidal ratio of 70% or higher and lower than 90%) | 4 (Herbicidal ratio of 70% or higher and lower than 90%) | 5 (Herbicidal ratio of 90% or more (almost completely withered)) | 5 (Herbicidal ratio of 90% or more (almost completely withered)) | 5 (Herbicidal ratio of 90% or more (almost completely withered)) | 5 (Herbicidal ratio of 90% or more (almost completely withered)) | 5 (Herbicidal ratio of 90% or more (almost completely withered)) | 4 (Herbicidal ratio of 70% or higher and lower than 90%) | 5 (Herbicidal ratio of 90% or more (almost completely withered)) | 4 (Herbicidal ratio of 70% or higher and lower than 90%) | 0 (Herbicidal ratio of 5% or lower (almost no effect)) | 2 (Herbicidal ratio of 20% or higher and lower than 40%) | 3 (Herbicidal ratio of 40% or higher and lower than 70%) | 0 (Herbicidal ratio of 5% or lower (almost no effect)) | 
2 | CC(CC1CC(O)=C(c2c(C)cc(C)cc2C)C1=O)=NOC(C)C (centres unmarked) [1-052] | 0 (Herbicidal ratio of 5% or lower (almost no effect)) | 5 (Herbicidal ratio of 90% or more (almost completely withered)) | 0 (Herbicidal ratio of 5% or lower (almost no effect)) | 3 (Herbicidal ratio of 40% or higher and lower than 70%) | 5 (Herbicidal ratio of 90% or more (almost completely withered)) | 5 (Herbicidal ratio of 90% or more (almost completely withered)) | 5 (Herbicidal ratio of 90% or more (almost completely withered)) | 5 (Herbicidal ratio of 90% or more (almost completely withered)) | 5 (Herbicidal ratio of 90% or more (almost completely withered)) | 5 (Herbicidal ratio of 90% or more (almost completely withered)) | 5 (Herbicidal ratio of 90% or more (almost completely withered)) | 5 (Herbicidal ratio of 90% or more (almost completely withered)) | 5 (Herbicidal ratio of 90% or more (almost completely withered)) | 4 (Herbicidal ratio of 70% or higher and lower than 90%) | 5 (Herbicidal ratio of 90% or more (almost completely withered)) | 3 (Herbicidal ratio of 40% or higher and lower than 70%) | 5 (Herbicidal ratio of 90% or more (almost completely withered)) | 
3 | CON=C(C)CC1CC(OC(=O)C=Cc2ccco2)=C(c2c(C)cc(C)cc2C)C1=O (centres unmarked) [1-091] |  |  |  |  |  |  |  | 5 (Herbicidal ratio of 90% or more (almost completely withered)) | 5 (Herbicidal ratio of 90% or more (almost completely withered)) |  |  |  |  |  | 5 (Herbicidal ratio of 90% or more (almost completely withered)) |  |  | f: beet, effect on crop (criteria 0-5) [1]: 0 (Herbicidal ratio of 5% or lower (almost no effect)); G: Setaria viridis, herbicidal effect (criteria 0-5) [2]: 5 (Herbicidal ratio of 90% or more (almost completely withered)); f: beet, effect grade on crop ([3]; 320 g/ha): 0 (Herbicidal ratio of 5% or lower (almost no effect)); c: corn, effect grade on crop ([4]; 320 g/ha): 5 (Herbicidal ratio of 90% or more (almost completely withered)); F: Digitaria ciliaris, herbicidal effect (criteria 0-5) [5]: 5 (Herbicidal ratio of 90% or more (almost completely withered)); H: Echinochloa crus-galli var. crus-galli, herbicidal effect grade ([6]; 320 g/ha): 5 (Herbicidal ratio of 90% or more (almost completely withered)); J: Alopecurus myosuroides, herbicidal effect (criteria 0-5) [7]: 5 (Herbicidal ratio of 90% or more (almost completely withered)); K: Lolium multiflorum Lam., herbicidal effect grade ([10]; 320 g/ha): 5 (Herbicidal ratio of 90% or more (almost completely withered)); F: Digitaria ciliaris, herbicidal effect grade ([11]; 320 g/ha): 5 (Herbicidal ratio of 90% or more (almost completely withered)); b: directly sowed rice plant, effect grade on crop ([12]; 320 g/ha): 5 (Herbicidal ratio of 90% or more (almost completely withered)); L: Apera spica-venti, herbicidal effect (criteria 0-5) [13]: 5 (Herbicidal ratio of 90% or more (almost completely withered)); M: Abutilon theophrasti, herbicidal effect grade ([14]; 320 g/ha): 1 (Herbicidal ratio of 5% or higher and lower than 20%); R: Veronica persica, herbicidal effect (criteria 0-5) [16]: 1 (Herbicidal ratio of 5% or higher and lower than 20%); e: wheat, effect grade on crop ([17]; 320 g/ha): 4 (Herbicidal ratio of 70% or higher and lower than 90%)
4 | CON=C(C)CC1CC(OC(=O)C(C)Oc2ccccc2)=C(c2c(C)cc(C)cc2C)C1=O (centres unmarked) [1-060] | 0 (Herbicidal ratio of 5% or lower (almost no effect)) | 5 (Herbicidal ratio of 90% or more (almost completely withered)) | 0 (Herbicidal ratio of 5% or lower (almost no effect)) | 4 (Herbicidal ratio of 70% or higher and lower than 90%) | 5 (Herbicidal ratio of 90% or more (almost completely withered)) | 5 (Herbicidal ratio of 90% or more (almost completely withered)) | 5 (Herbicidal ratio of 90% or more (almost completely withered)) | 5 (Herbicidal ratio of 90% or more (almost completely withered)) | 5 (Herbicidal ratio of 90% or more (almost completely withered)) | 5 (Herbicidal ratio of 90% or more (almost completely withered)) | 5 (Herbicidal ratio of 90% or more (almost completely withered)) | 5 (Herbicidal ratio of 90% or more (almost completely withered)) | 5 (Herbicidal ratio of 90% or more (almost completely withered)) | 4 (Herbicidal ratio of 70% or higher and lower than 90%) | 5 (Herbicidal ratio of 90% or more (almost completely withered)) | 3 (Herbicidal ratio of 40% or higher and lower than 70%) | 2 (Herbicidal ratio of 20% or higher and lower than 40%) | 
